Literature values as cited in patent US6821523B2, “Topical administration of pharmacologically active bases in the treatment of warts” (Dermatrends, Inc., priority 2002, dated 2004).

Experiments:
cutaneous warts = conditions: for efficacy in words: survey of clinical trials, local wart treatment

Compound | efficacy in words (cutaneous warts) | pH of Aqueous Solution, alkalinity in words | also measured
O=c1[nH]cc(F)c(=O)[nH]1 [5-fluorouracil] | weak at best |  | 
O=P([O-])([O-])O.[K+].[K+] [Potassium phosphate, dibasic] |  | Aqueous solution is slightly alkaline | 
O=B[O-].[Na+] [Sodium metaborate] |  | Strongly alkaline | 
O.O.O.O.O.O.O.O.O.O.O.O.O=P([O-])([O-])[O-].[Na+].[Na+].[Na+] [Sodium phosphate, tribasic dodecahydrate] |  |  | pH of Aqueous Solution (concentration) (1.0% (1%)): 11.9 (1.0%)
O=C(O)c1ccccc1O [salicylic acid] |  |  | cure rates (cutaneous warts; simple topical treatments, vs 48% for placebos): about 75%
bleomycin | weak at best |  | 
